The record followed here is ChEMBL document CHEMBL1201862, “PubChem BioAssay data set” (2004).

Some test systems named below: OVCAR-4; M19-MEL; SNB-78; HCT-15; SK-MEL-2; HCT-116; RPMI-8226; Malme-3M; CAKI-1; SK-OV-3; DMS-273; LXFL 529; SW-620; K562; XF498; COLO 205; NCI-H522.
What all share (test): DTP human tumour cell line panel, 48 h

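Five concentrations, 48 hours, 96-well plates. GI50 is the concentration that inhibits growth by half.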 Activity calls are given as the source filed them. Cut-off read from the data, not from the text of the source: active = GI50 up to about 1.1 µM and inactive = higher. Where only a bound is given, the exact number is not on record here.

`Cc1ccc(S(=O)(=O)c2ccccc2[N+](=O)[O-])cc1`: the GI50 (as a rule, the concentration at which growth is held to half of that of the control) in the experiment on OVCAR-4 is 86.9 µM (inactive); in the experiment on M19-MEL, > 100 µM (inactive); in the experiment on SNB-78, > 100 µM (inactive); with HCT-15 it was more than 100 µM; in the experiment with SK-MEL-2 it was > 100 µM (inactive); in the experiment on HCT-116, 66.8 µM (inactive). Moreover, the GI50 in the experiment on RPMI-8226 was 80.7 µM (inactive); in the experiment on Malme-3M, 85.1 µM (inactive); in the experiment with CAKI-1, 67.5 µM (inactive); with SK-OV-3, > 100 µM (inactive); in the experiment with DMS-273 it was > 100 µM (inactive); with LXFL 529, > 100 µM (inactive). The GI50 was > 100 µM (inactive) with SW-620, 73.3 µM (inactive) in the experiment with K562 and > 100 µM (inactive) with XF498.

Take `CCCC(=O)N[C@@H](Cc1cc(I)c(O)c(I)c1)C(=O)NCCCNCCCCNCCCNC(=O)[C@@H](N)CCCN=C(N)N`: the GI50 with M19-MEL is 40.1 µM (inactive); in the experiment with HCT-15 it was more than 100 µM; in the experiment on COLO 205 it was 40.6 µM (inactive); with HCT-116 it was 67 µM (inactive); in the experiment on RPMI-8226, 40.6 µM (inactive); with NCI-H522, 11.2 µM (inactive). Also, the GI50 with Malme-3M was > 100 µM (inactive); in the experiment on DMS-273, 27.4 µM (inactive); in the experiment on LXFL 529 it was 78 µM (inactive); in the experiment on SW-620, > 100 µM (inactive); in the experiment with K562 it was 45.1 µM (inactive); with XF498, > 100 µM (inactive).

For the compound `COc1ccc(CN2CC(C)(C)C2=O)c(OC)c1`, the GI50 in the experiment on OVCAR-4 was > 100 µM (inactive); with M19-MEL, > 100 µM (inactive); with SNB-78 it was > 100 µM (inactive); in the experiment on HCT-15 it was more than 100 µM; in the experiment on SK-MEL-2 it was > 100 µM (inactive); in the experiment with COLO 205, > 100 µM (inactive). Moreover, the GI50 in the experiment on HCT-116, in the experiment on RPMI-8226, with NCI-H522, with Malme-3M, with SK-OV-3 and with DMS-273 was > 100 µM (inactive) each time. For the same compound, the GI50 with SW-620, in the experiment on K562 and in the experiment with XF498 was > 100 µM (inactive) in each case.

On to `CN(C)CC/[N+]([O-])=C(/c1ccccc1)C12CC3CC(CC(C3)C1)C2`, for which the GI50 in the experiment on M19-MEL was 13.8 µM (inactive); with SNB-78, 19 µM (inactive); with HCT-15, 19.1 µM; with SK-MEL-2, 18.2 µM (inactive); in the experiment on COLO 205, 14 µM (inactive); in the experiment with HCT-116 it was 17.9 µM (inactive). For the same compound, the GI50 was 17.7 µM (inactive) in the experiment with RPMI-8226; 15.1 µM (inactive) in the experiment on NCI-H522; 39.7 µM (inactive) in the experiment with Malme-3M; 17 µM (inactive) in the experiment with CAKI-1; 17.1 µM (inactive) with SK-OV-3; 24 µM (inactive) in the experiment on LXFL 529. Moreover, the GI50 with K562 was 15.1 µM (inactive); in the experiment with XF498 it was 13.2 µM (inactive).

Regarding `CCCN1CN(C(C(=O)N[C@@H]2C(=O)N3C2SC(C)(C)C3C(=O)O)c2ccc(O)cc2)CSC1=S` (some centres undefined), the GI50 was > 100 µM (inactive) in the experiment on OVCAR-4; > 100 µM (inactive) with M19-MEL; more than 100 µM in the experiment on HCT-15; > 100 µM (inactive) in the experiment with SK-MEL-2; 29.8 µM (inactive) in the experiment on COLO 205; > 100 µM (inactive) in the experiment with HCT-116. For the same compound, the GI50 was 62.1 µM (inactive) in the experiment on RPMI-8226; 22.6 µM (inactive) with NCI-H522; > 100 µM (inactive) with Malme-3M; > 100 µM (inactive) in the experiment on CAKI-1; > 100 µM (inactive) in the experiment with SK-OV-3; > 100 µM (inactive) in the experiment with DMS-273. Also, the results for the GI50 in the experiment with LXFL 529, in the experiment on K562 and in the experiment with XF498 were 61.4 µM (inactive), 24.4 µM (inactive) and > 100 µM (inactive), respectively.

Take `CC(CC(=O)Nc1ccc(NC(=O)CC(C)/N=N\C(N)=O)cc1)/N=N\C(N)=O` (centres undefined): the GI50 with OVCAR-4 was > 100 µM (inactive); with M19-MEL it was > 100 µM (inactive); in the experiment on HCT-15 it was 16.4 µM; with SK-MEL-2, > 100 µM (inactive); in the experiment with COLO 205, 34.8 µM (inactive); in the experiment with HCT-116, > 100 µM (inactive). For the same compound, the GI50 was > 100 µM (inactive) with RPMI-8226; > 100 µM (inactive) in the experiment with NCI-H522; > 100 µM (inactive) with Malme-3M; > 100 µM (inactive) in the experiment with CAKI-1; > 100 µM (inactive) in the experiment with SK-OV-3; 41.6 µM (inactive) in the experiment with DMS-273. Besides, the GI50 in the experiment with LXFL 529, with K562 and in the experiment with XF498 was > 100 µM (inactive) in each case.

As for `COc1ccc2cc3nc(O)cc(O)c3cc2c1OC`, the GI50 was > 100 µM (inactive) in the experiment on OVCAR-4; > 100 µM (inactive) in the experiment with M19-MEL; > 100 µM (inactive) in the experiment with SNB-78; more than 100 µM in the experiment on HCT-15; > 100 µM (inactive) in the experiment with SK-MEL-2; > 100 µM (inactive) in the experiment with HCT-116. Besides, the GI50 with RPMI-8226, with Malme-3M, in the experiment on CAKI-1, in the experiment on LXFL 529, with SW-620 and in the experiment on K562 was > 100 µM (inactive) each time. In addition, in the experiment on XF498, the GI50 was > 100 µM (inactive).

With `COc1ccc(C2=NNC(=O)OC2c2ccccc2)cc1` (centres undefined), the GI50 in the experiment with OVCAR-4 was > 100 µM (inactive); in the experiment on M19-MEL, 55.7 µM (inactive); in the experiment on SNB-78, 95.7 µM (inactive); with HCT-15, 37.7 µM; in the experiment on SK-MEL-2, 36.1 µM (inactive); in the experiment with COLO 205 it was 78.2 µM (inactive). The GI50 was > 100 µM (inactive) in the experiment on HCT-116; > 100 µM (inactive) with RPMI-8226; 52.8 µM (inactive) in the experiment with Malme-3M; 92.3 µM (inactive) in the experiment with CAKI-1; 70 µM (inactive) with LXFL 529; 38.9 µM (inactive) in the experiment on SW-620. Also, the GI50 in the experiment on K562 was 26.7 µM (inactive); with XF498, 74 µM (inactive).

Turning to `C/C(=N\NS(=O)(=O)c1ccccc1)c1ccc(Cl)c(Cl)c1`, the GI50 is 58.9 µM (inactive) in the experiment on OVCAR-4; 57.4 µM (inactive) in the experiment with M19-MEL; > 100 µM (inactive) with SNB-78; 57 µM in the experiment with HCT-15; > 100 µM (inactive) in the experiment with SK-MEL-2; 26.2 µM (inactive) in the experiment on COLO 205. Also, the GI50 in the experiment with HCT-116 was 50.9 µM (inactive); in the experiment with RPMI-8226, 67.5 µM (inactive); in the experiment on Malme-3M, 68.2 µM (inactive); with CAKI-1 it was 75.2 µM (inactive); in the experiment with SK-OV-3, 67.3 µM (inactive); in the experiment on DMS-273 it was 85.3 µM (inactive). For the same compound, the GI50 in the experiment on LXFL 529 is 34.5 µM (inactive); with SW-620, > 100 µM (inactive); with K562 it was 86.5 µM (inactive); in the experiment with XF498, > 100 µM (inactive).

In the case of `COC1CC(n2cnc3c(N)ncnc32)OC1CO` (centres undefined), the GI50 in the experiment with OVCAR-4 is > 100 µM (inactive); with M19-MEL, > 100 µM (inactive); with HCT-15, more than 100 µM; with SK-MEL-2 it was > 100 µM (inactive); with COLO 205, > 100 µM (inactive); with HCT-116, > 100 µM (inactive). Besides, the GI50 in the experiment with RPMI-8226, in the experiment on NCI-H522, in the experiment with Malme-3M, with CAKI-1, in the experiment on DMS-273 and in the experiment on LXFL 529 was > 100 µM (inactive) in each case. The GI50 in the experiment on SW-620, with K562 and with XF498 was > 100 µM (inactive) each time.
